Experimental data taken from ChEMBL document CHEMBL1201862, “PubChem BioAssay data set” (2004).
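All cell lines were grown in 96-well plates and treated with compound for 48 hours. Here, GI50 denotes the concentration required for 50% inhibition of growth.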 Activity calls are given as the source filed them. Rule as the data show it: active = GI50 up to about 1.1 µM and inactive = higher.

Experiments:
Assay in all cases: NCI anticancer screen, dose series, 48 h
786-0 = system: 786-0
A498 = system: A498
A549 = system: A549
ACHN = system: ACHN
CAKI-1 = system: CAKI-1
CCRF-CEM = system: CCRF-CEM
COLO 205 = system: COLO 205
DLD-1 = system: DLD-1
DMS-114 = system: DMS-114
HCT-116 = system: HCT-116
HCT-15 = system: HCT-15
HL-60 = system: HL-60
HOP-18 = system: HOP-18
HOP-62 = system: HOP-62
HOP-92 = system: HOP-92
HT-29 = system: HT-29
IGROV-1 = system: IGROV-1
K562 = system: K562
KM-20L2 = system: KM-20L2
KM12 = system: KM12
LOX IMVI = system: LOX IMVI
LXFL 529 = system: LXFL 529
M14 = system: M14
M19-MEL = system: M19-MEL
MOLT-4 = system: MOLT-4
Malme-3M = system: Malme-3M
NCI-H226 = system: NCI-H226
NCI-H23 = system: NCI-H23
NCI-H460 = system: NCI-H460
NCI-H522 = system: NCI-H522
OVCAR-3 = system: OVCAR-3
OVCAR-4 = system: OVCAR-4
OVCAR-5 = system: OVCAR-5
OVCAR-8 = system: OVCAR-8
RPMI-8226 = system: RPMI-8226
RXF 631 = system: RXF 631
SF-268 = system: SF-268
SF-295 = system: SF-295
SF-539 = system: SF-539
SK-MEL-28 = system: SK-MEL-28
SK-MEL-2 = system: SK-MEL-2
SK-MEL-5 = system: SK-MEL-5
SK-OV-3 = system: SK-OV-3
SN12C = system: SN12C
SNB-19 = system: SNB-19
SNB-75 = system: SNB-75
SNB-78 = system: SNB-78
SR = system: SR
SW-620 = system: SW-620
TK-10 = system: TK-10
U-251 = system: U-251
UACC-257 = system: UACC-257
UACC-62 = system: UACC-62
UO-31 = system: UO-31
DMS-273 = system: DMS-273
HCC 2998 = system: HCC 2998
RXF 393 = system: RXF 393

Question: Which results are given for `Cc1cc(N(CCC#N)CCC#N)ccc1/C=C1N=C(/C=C\c2ccccc2)N(c2ccc(C(=O)O)cc2)C\1=O`?
Answer: GI50 (786-0): > 100 µM (inactive); GI50 (A498): > 100 µM (inactive); GI50 (A549): > 100 µM (inactive); GI50 (ACHN): > 100 µM (inactive); GI50 (CAKI-1): > 100 µM (inactive); GI50 (CCRF-CEM): > 100 µM (inactive); GI50 (COLO 205): > 100 µM (inactive); GI50 (DLD-1): > 100 µM (inactive); GI50 (DMS-114): > 100 µM (inactive); GI50 (HCT-116): > 100 µM (inactive); GI50 (HCT-15): > 100 µM; GI50 (HL-60): > 100 µM (inactive); GI50 (HOP-18): > 100 µM (inactive); GI50 (HOP-62): > 100 µM (inactive); GI50 (HOP-92): > 100 µM (inactive); GI50 (HT-29): > 100 µM (inactive); GI50 (IGROV-1): > 100 µM (inactive); GI50 (K562): > 100 µM (inactive); GI50 (KM-20L2): > 100 µM (inactive); GI50 (KM12): > 100 µM (inactive); GI50 (LOX IMVI): > 100 µM (inactive); GI50 (LXFL 529): > 100 µM (inactive); GI50 (M14): > 100 µM (inactive); GI50 (M19-MEL): > 100 µM (inactive); GI50 (MOLT-4): > 100 µM (inactive); GI50 (Malme-3M): > 100 µM (inactive); GI50 (NCI-H226): > 100 µM (inactive); GI50 (NCI-H23): > 100 µM (inactive); GI50 (NCI-H460): > 100 µM (inactive); GI50 (NCI-H522): > 100 µM (inactive); GI50 (OVCAR-3): > 100 µM (inactive); GI50 (OVCAR-4): > 100 µM (inactive); GI50 (OVCAR-5): > 100 µM (inactive); GI50 (OVCAR-8): > 100 µM (inactive); GI50 (RPMI-8226): > 100 µM (inactive); GI50 (RXF 631): > 100 µM (inactive); GI50 (SF-268): > 100 µM (inactive); GI50 (SF-295): > 100 µM (inactive); GI50 (SF-539): > 100 µM (inactive); GI50 (SK-MEL-28): > 100 µM (inactive); GI50 (SK-MEL-2): > 100 µM (inactive); GI50 (SK-MEL-5): > 100 µM (inactive); GI50 (SK-OV-3): > 100 µM (inactive); GI50 (SN12C): > 100 µM (inactive); GI50 (SNB-19): > 100 µM (inactive); GI50 (SNB-75): > 100 µM (inactive); GI50 (SNB-78): > 100 µM (inactive); GI50 (SR): > 100 µM (inactive); GI50 (SW-620): > 100 µM (inactive); GI50 (TK-10): > 100 µM (inactive); GI50 (U-251): > 100 µM (inactive); GI50 (UACC-257): > 100 µM (inactive); GI50 (UACC-62): > 100 µM (inactive); GI50 (UO-31): > 100 µM (inactive)

Question: `ClC[Si]12OCCN(CCO1)CCO2` was tested. Which GI50 (786-0) did it give?
Answer: > 100 µM (inactive)

Question: What about the GI50 (A498) of the same compound?
Answer: > 100 µM (inactive)

Question: What about the GI50 (A549) of the same compound?
Answer: > 100 µM (inactive)

Question: And the GI50 (ACHN)?
Answer: > 100 µM (inactive)

Question: What about the GI50 (CAKI-1) of the same compound?
Answer: > 100 µM (inactive)

Question: What about the GI50 (CCRF-CEM) of the same compound?
Answer: > 100 µM (inactive)

Question: And the GI50 (COLO 205)?
Answer: > 100 µM (inactive)

Question: And the GI50 (DLD-1)?
Answer: > 100 µM (inactive)

Question: What about the GI50 (DMS-114) of the same compound?
Answer: > 100 µM (inactive)

Question: What about the GI50 (DMS-273) of the same compound?
Answer: > 100 µM (inactive)

Question: And the GI50 (HCC 2998)?
Answer: > 100 µM (inactive)

Question: What about the GI50 (HCT-116) of the same compound?
Answer: > 100 µM (inactive)

Question: What about the GI50 (HL-60) of the same compound?
Answer: > 100 µM (inactive)

Question: What about the GI50 (HOP-18) of the same compound?
Answer: > 100 µM (inactive)

Question: What about the GI50 (HOP-92) of the same compound?
Answer: > 100 µM (inactive)

Question: What about the GI50 (HT-29) of the same compound?
Answer: > 100 µM (inactive)

Question: What about the GI50 (IGROV-1) of the same compound?
Answer: > 100 µM (inactive)

Question: And the GI50 (K562)?
Answer: > 100 µM (inactive)

Question: And the GI50 (KM12)?
Answer: > 100 µM (inactive)

Question: And the GI50 (LXFL 529)?
Answer: > 100 µM (inactive)

Question: What about the GI50 (MOLT-4) of the same compound?
Answer: > 100 µM (inactive)

Question: And the GI50 (Malme-3M)?
Answer: > 100 µM (inactive)

Question: What about the GI50 (NCI-H226) of the same compound?
Answer: > 100 µM (inactive)

Question: What about the GI50 (NCI-H23) of the same compound?
Answer: > 100 µM (inactive)

Question: What about the GI50 (NCI-H460) of the same compound?
Answer: > 100 µM (inactive)

Question: What about the GI50 (NCI-H522) of the same compound?
Answer: > 100 µM (inactive)

Question: What about the GI50 (OVCAR-3) of the same compound?
Answer: > 100 µM (inactive)

Question: What about the GI50 (OVCAR-5) of the same compound?
Answer: > 100 µM (inactive)

Question: And the GI50 (OVCAR-8)?
Answer: > 100 µM (inactive)

Question: What about the GI50 (RPMI-8226) of the same compound?
Answer: > 100 µM (inactive)

Question: And the GI50 (RXF 393)?
Answer: > 100 µM (inactive)

Question: And the GI50 (RXF 631)?
Answer: > 100 µM (inactive)

Question: What about the GI50 (SF-268) of the same compound?
Answer: > 100 µM (inactive)

Question: And the GI50 (SF-295)?
Answer: > 100 µM (inactive)

Question: And the GI50 (SF-539)?
Answer: > 100 µM (inactive)

Question: And the GI50 (SK-MEL-28)?
Answer: > 100 µM (inactive)

Question: And the GI50 (SK-MEL-2)?
Answer: > 100 µM (inactive)

Question: What about the GI50 (SK-MEL-5) of the same compound?
Answer: > 100 µM (inactive)

Question: What about the GI50 (SK-OV-3) of the same compound?
Answer: > 100 µM (inactive)

Question: And the GI50 (SN12C)?
Answer: > 100 µM (inactive)

Question: And the GI50 (SNB-19)?
Answer: > 100 µM (inactive)

Question: What about the GI50 (SNB-75) of the same compound?
Answer: > 100 µM (inactive)

Question: And the GI50 (SNB-78)?
Answer: > 100 µM (inactive)

Question: What about the GI50 (SR) of the same compound?
Answer: > 100 µM (inactive)

Question: And the GI50 (SW-620)?
Answer: > 100 µM (inactive)

Question: And the GI50 (TK-10)?
Answer: > 100 µM (inactive)

Question: What about the GI50 (U-251) of the same compound?
Answer: > 100 µM (inactive)

Question: And the GI50 (UACC-257)?
Answer: > 100 µM (inactive)

Question: What about the GI50 (UACC-62) of the same compound?
Answer: > 100 µM (inactive)

Question: What about the GI50 (UO-31) of the same compound?
Answer: > 100 µM (inactive)
